These are literature values, as cited in EP2484728B1, “Ink composition, ink set, and image forming method” (Fujifilm Corporation, priority 2011, dated 2012).

For the series the following is noted: 25°C; Polymer Handbook values, otherwise calculated by the Fedors method.
With `CCCCC(O)CO` (centres unmarked) [1,2-Hexanediol], the SP value is given as 24.1 (MPa)^1/2.

Take `OCCOCCO` [DEG, Diethylene glycol]: the SP value entry is reported as “DEG (30.6) (MPa)^1/2”.

Turning to `CCCCOCCOCCO` [Diethylene glycol monobutyl ether], the SP value is on record as 21.5 (MPa)^1/2.

`COCCOCCO` [Diethylene glycol monomethyl ether]: the SP value was 22.4 (MPa)^1/2.

Regarding `COC(C)COC(C)CO` (centres unmarked) [Dipropylene glycol monomethyl ether], the SP value is on record as 21.3 (MPa)^1/2.

`CC(O)COC(C)COC(C)COC(C)COC(C)COC(C)COC(C)CO` (centres unmarked) [Heptapropylene glycol]: the SP value is 21.2 (MPa)^1/2.

Consider `CCOCC(C)O` (centres unmarked) [Propylene glycol monoethyl ether], for which the SP value is listed as 22.3 (MPa)^1/2.

For `CCCCOCCOCCOCCO` [Triethylene glycol monobutyl ether], the SP value was 21.1 (MPa)^1/2.

Consider `CCOCCOCCOCCO` [Triethylene glycol monoethyl ether], for which the SP value is 21.7 (MPa)^1/2.

With `COCCOCCOCCO` [Triethylene glycol monomethyl ether], the SP value was 22.1 (MPa)^1/2.

As for `COC(C)COC(C)COC(C)CO` (centres unmarked) [Tripropylene glycol monomethyl ether], the SP value is on record as 20.4 (MPa)^1/2.

Take `CC(O)COC(C)COC(C)CO` (centres unmarked) [Tripropylene glycol]: the SP value is given as 24.7 (MPa)^1/2.

Turning to `OCC(O)CO` [glycerin], the SP value entry is given as “glycerin (33.5) (MPa)^1/2”.

On to “Decaoxyethylene heptaoxypropylene butyl ether”, for which the SP value is listed as 18.8 (MPa)^1/2.

For the compound “Decaoxyethylene triacontaoxypropylene butyl ether”, the SP value is reported as 18.7 (MPa)^1/2.

In the case of “Dioxyethylene dioxypropylene butyl ether”, the SP value is given as 20.1 (MPa)^1/2.

Take “Dodecaoxyethylene dodecaoxypropylene butyl ether”: the SP value is reported as 18.8 (MPa)^1/2.

POE (20) diglyceryl ether: the SP value is 22.4 (MPa)^1/2.

For the compound POE (40) diglyceryl ether, the SP value was 21.0 (MPa)^1/2.

In the case of POP (3) glycerylether, the SP value is given as 26. 4 (MPa)^1/2.

With POP (4) diglyceryl ether, the SP value is recorded as 26.1 (MPa)^1/2.

As to POP (4) glyceryl ether, the SP value is 24.9 (MPa)^1/2.

In the case of POP (5) glyceryl ether, the SP value is 23.9 (MPa)^1/2.

Regarding POP (6) glyceryl ether, the SP value is 23. 2 (MPa)^1/2.

Turning to POP (7) glyceryl ether, the SP value is 22.6 (MPa)^1/2.

POP (8) glyceryl ether: the SP value was 22.1 (MPa)^1/2.

Take POP (9) diglyceryl ether: the SP value was 22.7 (MPa)^1/2.

Take POP (9) glyceryl ether: the SP value is given as 21.7 (MPa)^1/2.

In the case of POP (10) glyceryl ether, the SP value is 21.4 (MPa)^1/2.

Turning to POP (16) glyceryl ether, the SP value is reported as 20.2 (MPa)^1/2.

As for “Pentacosaoxyethylene triacontaoxypropylene butyl ether”, the SP value is on record as 18.8 (MPa)^1/2.

With “Pentaoxyethylene pentaoxypropylene butyl ether”, the SP value is reported as 18.8 (MPa)^1/2.
